Results published in patent publication US11253457B2, “Exopolysaccharide-protein complex, a method of preparing said complex and uses thereof” (INSTITUT UNIV. DE CIÈNCIA I TECNOLOGIA, S.A., priority 2016, dated 2022).

Assays:
[1] = test system: human hepatocellular carcinoma cell line (HepG2); experiment: MTT tumor cell proliferation assay (HepG2); type: cell-based; conditions: HepG2, positive control
Protocol: The MTT assay was used for measuring the proliferation of the tumor cells. Briefly, human hepatocellular carcinoma cell line (HepG2), human breast adenocarcinoma cell line (MCF7), human lung adenocarcinoma cell line (H1975) and Human melanoma cell line (A375) were seeded at a density of 4×10^4 cells/mL in a volume of 0.1 mL in 96-well plates, respectively. After 24 h, different concentrations of EPCx (1.0, 0.1 and 0.01 mg/ml) were dissolved in the medium was added to each well and incubated for 48 h at 37° C. in a CO2 incubator. 5-Fu (5-fluorouracil) was used as the positive control. After the incubation, 20 μL of MTT solution (5 mg/mL) were added into each well and followed by further incubation for 4-5 h. The culture media were then removed and 100 μL of DMSO was added to each well for 1 h. Absorbance at 570 nm was detected by microplate ELISA reader.

IL-8 [2] = experiment: Real-time PCR of IL-8 mRNA in keratinocytes stressed with LPS; type: cell-based, human; conditions: LPS 10 μg/ml alone
Protocol: (§1) The capacity of EPS to modulate the inflammatory response was evaluated in vitro in human primary keratinocytes (HEK) and human monocyte-like cells (THP-1) stressed with LPS (lipopolysaccharide). The cells were pretreated with different concentrations of exopolysaccharide-protein complex (1, 0.1 and 0.01 mg/ml) for 24 h and with 10 μg/ml of LPS for 24 h. Controls of HEK and THP-1 cells treated only with the different concentrations of exopolysaccharide-protein complex (1.0, 0.1 and 0.01 mg/ml) were also prepared.
(§2) Expression of mRNA for the cytokines IL-6, IL-8, IL-10 and TNF-α was analyzed by real-time PCR and the NF-κB activation was measured using a luciferase reporter gene assay.
(§3) Real-time PCR: Total RNA was extracted with the RNA Isolation Kit (ThermoFischer Scientific) according to the manufacturer's recommendations. 1 ng of RNA was reverse transcribed into complementary DNA (cDNA) using Superscript One-Step RT-PCR kit with platinum Taq according to the instructions (Invitrogen). Quantification rests on the measure of threshold cycles (CT), which are measured at the beginning of the exponential phase of the reaction and on the normalization of the internal standard curve obtained with the reference gene.

IL-6 [3] = experiment: Real-time PCR of IL-6 mRNA in keratinocytes stressed with LPS; type: cell-based, human; conditions: LPS 10 μg/ml alone
Protocol: as §1, §2, §3

IL-10 [4] = experiment: Real-time PCR of IL-10 mRNA in keratinocytes stressed with LPS; type: cell-based, human; conditions: LPS 10 μg/ml alone
Protocol: as §1, §2, §3

IL-6 [5] = experiment: Real-time PCR of IL-6 mRNA in THP-1 cells stressed with LPS; type: cell-based; conditions: human monocyte-like cells (THP-1), LPS 10 μg/ml alone
Protocol: as §1, §2, §3

IL-10 [6] = experiment: Real-time PCR of IL-10 mRNA in THP-1 cells stressed with LPS; type: cell-based; conditions: human monocyte-like cells (THP-1), LPS 10 μg/ml alone
Protocol: as §1, §2, §3

TNF-α [7] = experiment: Real-time PCR of TNF-α mRNA in THP-1 cells stressed with LPS; type: cell-based; conditions: human monocyte-like cells (THP-1), LPS 10 μg/ml alone
Protocol: as §1, §2, §3

TNF-α [8] = experiment: Real-time PCR of TNF-α mRNA in keratinocytes stressed with LPS; type: cell-based, human; conditions: LPS 10 μg/ml alone
Protocol: as §1, §2, §3

IL-8 [9] = experiment: Real-time PCR of IL-8 mRNA in THP-1 cells stressed with LPS; type: cell-based; conditions: human monocyte-like cells (THP-1), LPS 10 μg/ml alone
Protocol: as §1, §2, §3

| Compound | IC50 [1] [µM] | Gene expression (mRNA, real-time PCR) IL-8 (IL-8 [2]) | Gene expression (mRNA, real-time PCR) IL-6 (IL-6 [3]) | Gene expression (mRNA, real-time PCR) IL-10 (IL-10 [4]) | Gene expression (mRNA, real-time PCR) IL-6 (IL-6 [5]) | Gene expression (mRNA, real-time PCR) IL-10 (IL-10 [6]) | Gene expression (mRNA, real-time PCR) TNF-α (TNF-α [7]) | Gene expression (mRNA, real-time PCR) TNF-α (TNF-α [8]) | Gene expression (mRNA, real-time PCR) IL-8 (IL-8 [9]) |
| --- | --- | --- | --- | --- | --- | --- | --- | --- | --- |
| O=c1[nH]cc(F)c(=O)[nH]1 [5-fluorouracil] | 10 |  |  |  |  |  |  |  |  |
| lipopolysaccharide [LPS] |  | 59 | 62 | 7 | 73 | 5 | 67 | 67 | 82 |
